In article PMC5933261, “A phase 1 dose-escalation study of veliparib with bimonthly FOLFIRI in patients with advanced solid tumours” (British Journal of Cancer, 2018):
“Also recorded” adds a separate entry of the source.

Legend:
[1] = system: patients with advanced solid tumours
Source text: This phase 1 open-label, multicentre, dose-escalation, and safety expansion study evaluated veliparib in combination with bimonthly FOLFIRI in patients with advanced solid tumours. The primary objectives were to determine the maximum tolerated dose (MTD) and establish the recommended phase 2 dose (RP2D) of the combination therapy. Secondary objectives were to assess the safety and tolerability, PK profile, and exploratory efficacy of the combination for each of the FOLFIRI regimens. Patients received veliparib and bimonthly FOLFIRI in 28-day cycles. Veliparib was administered on days 15–19 in cycle 1 and on days 1–5 and 15–19 in subsequent cycles (Fig. 1). Patients with stable disease or better status could continue veliparib and bimonthly FOLFIRI at the investigator’s discretion until progressive disease (PD), unacceptable toxicity, or FOLFIRI discontinuation. The trial was registered with the ClinicalTrials.gov registry (NCT01123876) and was approved by appropriate independent ethics committees/institutional review boards prior to initiation. The study was performed in accordance with the 1964 Declaration of Helsinki and its later amendments. Written informed consent was obtained from all patients before study enrollment.
Dose escalation occurred in three parts to evaluate the MTD/RP2D of three different bimonthly FOLFIRI regimens in combination with veliparib (Fig. 1). A minimum of three patients per dose level were included for dose-toxicity modeling. In part 1, dose escalation began with veliparib twice daily (BID) on days 15–19 of cycle 1 (to allow the determination of single-agent PK for irinotecan, the active metabolite of irinotecan (SN-38), folinic acid, and 5-FU on cycle 1 day 1). In parts 2 and 3, dose escalation began with veliparib BID on day 15 of cycle 1. The differences in the dosing schedules of parts 1, 2, and 3 relate to dosing of irinotecan and 5-FU, and are detailed in Fig. 1. In all parts, veliparib continued to be administered on days 1–5 and 15–19 of each subsequent 28-day cycle. […]

[2] = Pharmacokinetics of FOLFIRI components with and without veliparib (relative bioavailability); conditions: cycle 1 day 15 vs cycle 1 day 1
Procedure: Treatment-emergent adverse events (TEAEs) were assessed from the time of study drug administration until 30 days following discontinuation of study drug. TEAEs were assessed according to the National Cancer Institute Common Terminology Criteria for Adverse Events version 4.0. In dose-escalation cohorts, blood samples were collected on day 15 of cycle 1 for veliparib PK, and on days 1 and 15 of cycle 1 for PK assessment of the FOLFIRI components irinotecan, SN-38, folinic acid (leucovorin), and 5-FU. Exploratory efficacy end points included objective response rate (ORR), time to disease progression (TTP), duration of overall response (DOR), and ECOG performance status. Objective response rate included confirmed complete response (CR) and partial response (PR). Objective response rate evaluation was based on Response Evaluation Criteria in Solid Tumours version 1.1. Objective response rate was calculated for all patients with one or more measurable lesions at baseline. Time to disease progression was defined as the number of days from the date the patient started study drug to the date of the patient’s disease progression. Duration of overall response was defined as the number of days from the day criteria were met for CR or PR (whichever was recorded first) to the date that PD was objectively documented. If a patient was still responding, the patient’s data were censored at the date of the last study visit at which a tumour assessment was performed. Analyses of change and/or percentage change from baseline for tumour size were performed for each scheduled post-baseline visit and for the final visit. ECOG performance status was assessed at all visits, with descriptive statistics summarised for each assessment. In addition, a mean change from baseline to each assessment time was summarised.
The sample size was based on clinical justification. No specific statistical hypothesis tests were planned, with descriptive statistics used for the analysis of safety, PK, and tumour response data. The study population for all safety and preliminary efficacy analyses included patients who received one or more doses of study medication. Data from parts 1–3 of the dose-escalation cohort were combined for assessment of the effect of veliparib on the PK of irinotecan, SN-38, and folinic acid. Linear mixed effects models were performed on natural logarithmically transformed maximum plasma concentration (Cmax) and area under the plasma or serum concentration-time curve (AUC) to compare exposure of irinotecan, SN-38, and folinic acid with and without the administration of veliparib. Point estimates and the corresponding 90% confidence intervals (CIs) of the ratio of central values with and without veliparib administration were calculated.

[3] = Veliparib pharmacokinetics, cycle 1 day 15; format: in vivo, human; conditions: co-administered with FOLFIRI; 10–270 mg BID
[4] = system: advanced solid tumours; experiment: Exploratory efficacy: ORR (RECIST version 1.1), TTP, DOR; format: in vivo, human
Source text: The sample size was based on clinical justification.

[5] = system: patients with advanced solid tumours; design: method as in PMID 26842236; conditions: veliparib 40 mg BID days 1–14 of a 21-day cycle with irinotecan 100 mg/m^2 day 1 and 8; cited from earlier work

Compound: C[C@]1(c2nc3c(C(N)=O)cccc3[nH]2)CCCN1 [veliparib, Veliparib]
- Recommended phase 2 dose (RP2D) of veliparib ([1]; human, in vivo): 200 mg BID
- Maximum tolerated dose (MTD) ([1]; veliparib 10–270 mg BID plus FOLFIRI, Bayesian CRM): not reached
- Effect of veliparib on the pharmacokinetics of FOLFIRI components [2]: no significant effect
- Effect of veliparib on the pharmacokinetics of FOLFIRI components ([2]; listed as Veliparib): no effect
- Dose proportionality of veliparib exposure (Cmax, AUC) [3]: approximately dose-proportional; also recorded: approximate dose proportionality
- Median time to disease progression (TTP) ([4]; expanded safety cohort, colorectal (N=6)): 195 days
- 6-month TTP rate ([4]; expanded safety cohort, colorectal cancer (n = 6), veliparib RP2D plus FOLFIRI): 60.0%
- Median time to disease progression (TTP) ([4]; expanded safety cohort, gastric (N=14)): 223 days
- 6-month TTP rate ([4]; expanded safety cohort, gastric cancer (n = 14), veliparib RP2D plus FOLFIRI): 53.8%
- Complete response (CR) ([4]; veliparib plus FOLFIRI): not achieved by any patients
- Patients with a partial response ([4]; veliparib plus FOLFIRI): Fifteen
- Objective response rate (ORR) ([4]; veliparib plus FOLFIRI, 85 patients with measurable lesions at baseline): 17.6%
- ORR (CR + PR) ([4]; veliparib plus FOLFIRI, Breast n = 8): 2 (25.0) (3.2–65.1) n (%) (95% CI)
- ORR (CR + PR) ([4]; veliparib plus FOLFIRI, Colorectal n = 9): 2 (22.2) (2.8–60.0) n (%) (95% CI)
- ORR (CR + PR) ([4]; veliparib plus FOLFIRI, Gastric n = 20): 3 (15.0) (3.2–37.9) n (%) (95% CI)
- ORR (CR + PR) ([4]; veliparib plus FOLFIRI, Other n = 27): 3 (11.1) (2.4–29.2) n (%) (95% CI)
- ORR (CR + PR) ([4]; veliparib plus FOLFIRI, Ovarian n = 7): 3 (42.9) (9.9–81.6) n (%) (95% CI)
- ORR (CR + PR) ([4]; veliparib plus FOLFIRI, Overall n = 85, measurable lesions at baseline): 15 (17.6) (10.2–27.4) n (%) (95% CI)
- ORR (CR + PR) ([4]; veliparib plus FOLFIRI, Pancreatic n = 14): 2 (14.3) (1.8–42.8) n (%) (95% CI)
- Median time to disease progression (TTP) ([4]; veliparib plus FOLFIRI, all dosed patients, colorectal (N=10)): 195 days
- Median time to disease progression (TTP) ([4]; veliparib plus FOLFIRI, all dosed patients, gastric (N=20)): 157 days
- Median time to disease progression (TTP) ([4]; veliparib plus FOLFIRI, all dosed patients, ovarian (N=9)): 361 days
- Objective response rate (ORR) ([4]; veliparib plus FOLFIRI, breast cancer): 25.0%
- 6-month TTP rate ([4]; veliparib plus FOLFIRI, breast cancer (n = 9)): 22.2%
- Objective response rate (ORR) ([4]; veliparib plus FOLFIRI, colorectal cancer): 22.2%
- 6-month TTP rate ([4]; veliparib plus FOLFIRI, colorectal cancer (n = 10)): 50.8%
- 6-month TTP rate ([4]; veliparib plus FOLFIRI, gastric cancer (n = 20)): 45.9%
- 6-month TTP rate ([4]; veliparib plus FOLFIRI, other cancers (n = 30)): 21.2%
- Objective response rate (ORR) ([4]; veliparib plus FOLFIRI, ovarian cancer (n = 7)): 42.9%
- 6-month TTP rate (probability of remaining progression-free for 6 months) ([4]; veliparib plus FOLFIRI, ovarian cancer (n = 9)): 65%
- Objective response rate (ORR) ([4]; veliparib plus FOLFIRI, pancreatic cancer): 14.3%
- 6-month TTP rate ([4]; veliparib plus FOLFIRI, pancreatic cancer (n = 14)): 26.8%
- Median duration of overall response (DOR) ([4]; veliparib plus FOLFIRI, patients who received irinotecan 150 mg/m^2): 560 days
- Response rates ([4]; veliparib plus FOLFIRI, previously treated patient population): over 15%
- Tolerability [5]: well tolerated
